The values that follow are results of earlier work, collected in patent US20240108043A1, “NONNUTRITIVE SWEETENER COMPOSITIONS, METHODS OF MANUFACTURE AND USES THEREOF” (priority 2022, published 2024).

Read-outs that look alike come from different tables or passages of the source.

In data set [1] the test system is TNF-Alpha and Interleukin 1-Beta. Conditions: concentration of 1 mM.
For data set [2] the following is noted: 500 mg, two years, mild hypertension patients.
For data set [3] the following is noted: for Sweetness intensity relative to sucrose: times the sweetness intensity of sucrose.
The conditions of data set [4]: in vivo.
For data set [5] the following is noted: diabetic human subjects, daily 20 g for 14 days.
Assay in data set [6]: not given
This is another data set of the same source.

With `C=C1C[C@@]23CC[C@H]4[C@@](C)(CCC[C@@]4(C)C(=O)O[C@@H]4O[C@H](CO)[C@@H](O)[C@H](O)[C@H]4O)[C@@H]2CC[C@]1(O[C@@H]1O[C@H](CO)[C@@H](O)[C@H](O)[C@H]1O[C@@H]1O[C@H](CO)[C@@H](O)[C@H](O)[C@H]1O)C3` [stevioside], the “Endotoxin release of TNF-Alpha and Interleukin 1-Beta” value in data set [1] was “significantly suppressed”. Besides, in data set [2], the “Diastolic and systolic blood pressure” value was “significantly reduced”. Besides, the Blood glucose entry (200 mg, sixty healthy volunteers) is listed as “effectively reduce blood glucose”. Moreover, the “Postprandial blood glucose levels” value (1 gram vs 1 gram maize starch, type-2 diabetes patients, 30 and 240 minutes after a meal) is “reduced postprandial blood glucose levels”.
For the compound `OC[C@@H](O)[C@@H](O)CO` [erythritol, (2R,3S)-Butan-1,2,3,4-tetrol], the “Sweetness, as sweet as sucrose” value in data set [3] (percent of sucrose sweetness) is 60-70%. In addition, the “Sweetness intensity relative to sucrose” value in data set [3] was 0.6-0.7 times. The “Excreted through urine with molecular structure unchanged” value in data set [4] is “Approximately 90%”. Further, in data set [5], the “Effect on blood glucose insulin” value is “no effect”.
With `OC[C@@H](O)[C@@H](O)[C@H](O)[C@@H](O)CO` [sorbitol], the figures for the “Dose at which laxative affect is seen” value in data set [6] (men) and in data set [6] (women) were 170 mg/kg and 240 mg/kg, respectively.
With `O=C(CO)[C@H](O)[C@H](O)[C@H](O)CO` [allulose, D-ribo-2-hexulose], the “Sweetness intensity relative to sucrose” value in data set [3] is recorded as “approximately 0.7 times”.
Take `C=C1C[C@@]23CC[C@H]4[C@@](C)(CCC[C@@]4(C)C(=O)O)[C@@H]2CC[C@]1(O)C3` [steviol]: the “Endotoxin release of TNF-Alpha and Interleukin 1-Beta” value in data set [1] is recorded as “significantly suppressed”.
Take `OC[C@@H](O)[C@@H](O)[C@H](O)[C@H](O)CO` [mannitol]: in data set [6] (single bolus), the “Dose causing laxative affects” value is reported as “greater than 20 grams”.
Consider `OC[C@@H](O)[C@@H](O[C@@H]1O[C@H](CO)[C@H](O)[C@H](O)[C@H]1O)[C@H](O)[C@@H](O)CO` [lactitol], for which, in data set [6] (doses of 30-40 grams), the “Incidence of gastrointestinal distress compared to equal doses of sucrose” value is reported as “significantly (p<0.01) increased”.
For `O=C(CO)[C@@H](O)[C@H](O)[C@H](O)CO` [fructose, D-Fructose], in data set [3], the “Sweetness intensity relative to sucrose” value is “approximately 1.7 times”.
